Columns and labels:
[1] = biological target: Type-1 angiotensin II receptor (Homo sapiens) (UniProt P30556); assay: Angiotensin AT1 Eurofins-Panlabs radioligand binding assay; settings: Compound concentration 10.0 uM
[2] = biological target: Gastrin/cholecystokinin type B receptor (Homo sapiens) (UniProt P32239); assay: Cholecystokinin CCK2 (CCKB) Eurofins-Panlabs radioligand binding assay; settings: Compound concentration 10.0 uM
[3] = biological target: Serine/threonine-protein kinase WNK1 (Homo sapiens) (UniProt Q9H4A3); assay: WNK1 DiscoveRx kinase panel; settings: Compound concentration 1.0 uM
[4] = test system: SK-BR-3; assay: SK-BR-3 cell line Proliferation assay; format: functional, Homo sapiens; settings: time 4 day
[5] = biological target: Muscle, skeletal receptor tyrosine-protein kinase (Homo sapiens) (UniProt O15146); assay: MUSK DiscoveRx kinase panel; settings: Compound concentration 1.0 uM
[6] = biological target: Membrane-associated tyrosine- and threonine-specific cdc2-inhibitory kinase (Homo sapiens) (UniProt Q99640); assay: PKMYT1 DiscoveRx kinase panel; settings: Compound concentration 1.0 uM
[7] = biological target: MAO-A (Homo sapiens, UniProt P21397); assay: Inhibition of Monoamine Oxidase MAO-A at compound concentration of 10.0 uM in the Eurofins-Panlabs enzyme assay (Eurofins_assay_140010); design: substrate with concentration 50 uM Kynuramine, incubation time 60 min, incubation temperature 37 C; settings: human recombinant MAO-A expressed in insect Hi5 cells, probe Kynuramine (50 uM), compound concentration 10 uM
[8] = biological target: Rhodopsin kinase GRK7 (Homo sapiens) (UniProt Q8WTQ7); assay: GRK7 DiscoveRx kinase panel; settings: Compound concentration 1.0 uM
[9] = biological target: Myosin-IIIa (Homo sapiens) (UniProt Q8NEV4); assay: MYO3A DiscoveRx kinase panel; settings: Compound concentration 1.0 uM
[10] = biological target: Serine/threonine-protein kinase 32C (Homo sapiens) (UniProt Q86UX6); assay: YANK3 DiscoveRx kinase panel; settings: Compound concentration 1.0 uM
[11] = biological target: Cyclin-dependent kinase-like 1 (Homo sapiens) (UniProt Q00532); assay: CDKL1 DiscoveRx kinase panel; settings: Compound concentration 1.0 uM
[12] = biological target: Cyclin-dependent kinase 7 (Homo sapiens) (UniProt P50613); assay: CDK7 DiscoveRx kinase panel; settings: Compound concentration 1.0 uM
[13] = biological target: Histamine H3 receptor (Homo sapiens) (UniProt Q9Y5N1); settings: Compound concentration 10.0 uM
Chain of Histamine H3 receptor (Homo sapiens) (Q9Y5N1 whole entry): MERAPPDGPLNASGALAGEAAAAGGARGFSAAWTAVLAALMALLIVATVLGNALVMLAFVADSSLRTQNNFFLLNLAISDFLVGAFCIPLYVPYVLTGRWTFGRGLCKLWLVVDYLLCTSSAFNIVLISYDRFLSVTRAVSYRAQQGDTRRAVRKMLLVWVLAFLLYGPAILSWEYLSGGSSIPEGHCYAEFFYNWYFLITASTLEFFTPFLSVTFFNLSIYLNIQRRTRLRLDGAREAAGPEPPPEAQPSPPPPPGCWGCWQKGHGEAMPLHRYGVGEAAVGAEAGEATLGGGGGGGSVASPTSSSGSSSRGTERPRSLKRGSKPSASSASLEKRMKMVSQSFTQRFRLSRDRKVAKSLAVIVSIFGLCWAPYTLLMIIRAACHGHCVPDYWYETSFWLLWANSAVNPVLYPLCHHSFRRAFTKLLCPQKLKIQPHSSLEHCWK

[14] = biological target: cGMP-dependent protein kinase 2 (Homo sapiens) (UniProt Q13237); assay: PRKG2 DiscoveRx kinase panel; settings: Compound concentration 1.0 uM
[15] = biological target: Serine/threonine-protein kinase PLK1 (Homo sapiens) (UniProt P53350); assay: PLK1 DiscoveRx kinase panel; settings: Compound concentration 1.0 uM
[16] = biological target: Tyrosine-protein kinase Tec (Homo sapiens) (UniProt P42680); assay: TEC DiscoveRx kinase panel; settings: Compound concentration 1.0 uM
[17] = biological target: Ephrin type-A receptor 2 (Homo sapiens) (UniProt P29317); assay: EPHA2 DiscoveRx kinase panel; settings: Compound concentration 1.0 uM
[18] = biological target: Cannabinoid receptor 1 (Homo sapiens) (UniProt P21554); settings: Compound concentration 10.0 uM
[19] = biological target: Serine/threonine-protein kinase SIK3 (Homo sapiens) (UniProt Q9Y2K2); assay: QSK DiscoveRx kinase panel; settings: Compound concentration 1.0 uM
[20] = biological target: Activin receptor type-1B (Homo sapiens) (UniProt P36896); assay: ACVR1B DiscoveRx kinase panel; settings: Compound concentration 1.0 uM
[21] = biological target: B2 bradykinin receptor (Homo sapiens) (UniProt P30411); assay: Bradykinin B2 Eurofins-Panlabs radioligand binding assay; settings: Compound concentration 10.0 uM
[22] = biological target: Tyrosine-protein kinase JAK3 (Homo sapiens) (UniProt P52333); assay: JAK3(JH1domain-catalytic) DiscoveRx kinase panel; settings: Compound concentration 1.0 uM
[23] = biological target: Vascular endothelial growth factor receptor 1 (Homo sapiens) (UniProt P17948); assay: FLT1 DiscoveRx kinase panel; settings: Compound concentration 1.0 uM
[24] = biological target: Ephrin type-A receptor 1 (Homo sapiens) (UniProt P21709); assay: EPHA1 DiscoveRx kinase panel; settings: Compound concentration 1.0 uM
[25] = biological target: Atypical kinase COQ8B, mitochondrial (Homo sapiens) (UniProt Q96D53); assay: ADCK4 DiscoveRx kinase panel; settings: Compound concentration 1.0 uM
[26] = test system: HeLa; assay: HeLa cell line Proliferation assay; format: functional, Homo sapiens; settings: time 4 day
[27] = biological target: Protein kinase C delta type (Homo sapiens) (UniProt Q05655); assay: PRKCD DiscoveRx kinase panel; settings: Compound concentration 1.0 uM
[28] = biological target: MAO-B (Homo sapiens, UniProt P27338); assay: Inhibition of Monoamine Oxidase MAO-B at compound concentration of 10.0 uM in the Eurofins-Panlabs enzyme assay (Eurofins_assay_140120); design: substrate with concentration 50 uM Kynuramine, incubation time 60 min, incubation temperature 37 C; settings: human recombinant MAO-B expressed in insect Hi5 cells, probe Kynuramine (50 uM), compound concentration 10 uM
[29] = biological target: Mitogen-activated protein kinase kinase kinase 19 (Homo sapiens) (UniProt Q56UN5); assay: YSK4 DiscoveRx kinase panel; settings: Compound concentration 1.0 uM
Chain of Mitogen-activated protein kinase kinase kinase 19 (Homo sapiens) (Q56UN5 whole entry): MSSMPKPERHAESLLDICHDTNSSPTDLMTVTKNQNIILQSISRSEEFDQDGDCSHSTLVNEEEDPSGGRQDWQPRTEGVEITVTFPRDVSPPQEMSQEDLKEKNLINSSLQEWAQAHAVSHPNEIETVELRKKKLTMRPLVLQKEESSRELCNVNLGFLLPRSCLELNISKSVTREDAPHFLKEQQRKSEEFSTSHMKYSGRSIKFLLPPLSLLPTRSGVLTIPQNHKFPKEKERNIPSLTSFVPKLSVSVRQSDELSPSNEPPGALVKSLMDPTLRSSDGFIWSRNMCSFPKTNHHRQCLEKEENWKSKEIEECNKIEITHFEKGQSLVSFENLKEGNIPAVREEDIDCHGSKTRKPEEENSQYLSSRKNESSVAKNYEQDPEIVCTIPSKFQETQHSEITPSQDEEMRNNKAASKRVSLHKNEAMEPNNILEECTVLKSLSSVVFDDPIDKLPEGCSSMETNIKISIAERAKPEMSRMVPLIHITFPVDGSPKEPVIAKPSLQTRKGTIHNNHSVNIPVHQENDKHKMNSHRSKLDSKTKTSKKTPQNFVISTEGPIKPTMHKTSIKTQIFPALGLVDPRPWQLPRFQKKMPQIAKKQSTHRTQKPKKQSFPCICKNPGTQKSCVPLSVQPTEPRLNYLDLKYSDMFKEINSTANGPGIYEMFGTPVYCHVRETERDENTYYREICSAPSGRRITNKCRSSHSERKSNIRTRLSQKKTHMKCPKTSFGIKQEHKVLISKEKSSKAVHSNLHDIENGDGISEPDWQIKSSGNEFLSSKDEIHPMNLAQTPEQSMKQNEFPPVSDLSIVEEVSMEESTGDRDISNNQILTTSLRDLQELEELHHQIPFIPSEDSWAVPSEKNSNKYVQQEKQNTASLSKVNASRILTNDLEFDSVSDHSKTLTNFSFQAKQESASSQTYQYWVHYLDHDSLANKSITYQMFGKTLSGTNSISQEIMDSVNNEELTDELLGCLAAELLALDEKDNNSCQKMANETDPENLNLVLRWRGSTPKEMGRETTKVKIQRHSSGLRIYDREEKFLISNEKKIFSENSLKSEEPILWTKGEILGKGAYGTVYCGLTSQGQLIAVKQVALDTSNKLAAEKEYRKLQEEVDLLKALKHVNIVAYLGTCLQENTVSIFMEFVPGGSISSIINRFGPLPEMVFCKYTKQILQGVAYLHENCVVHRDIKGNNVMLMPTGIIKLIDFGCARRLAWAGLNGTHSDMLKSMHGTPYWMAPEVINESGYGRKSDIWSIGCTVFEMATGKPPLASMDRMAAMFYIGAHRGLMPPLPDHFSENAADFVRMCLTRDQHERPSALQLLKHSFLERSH

[30] = biological target: Beta-1 adrenergic receptor (Homo sapiens) (UniProt P08588); settings: Compound concentration 10.0 uM
Chain of Beta-1 adrenergic receptor (Homo sapiens) (P08588 whole entry, looked up): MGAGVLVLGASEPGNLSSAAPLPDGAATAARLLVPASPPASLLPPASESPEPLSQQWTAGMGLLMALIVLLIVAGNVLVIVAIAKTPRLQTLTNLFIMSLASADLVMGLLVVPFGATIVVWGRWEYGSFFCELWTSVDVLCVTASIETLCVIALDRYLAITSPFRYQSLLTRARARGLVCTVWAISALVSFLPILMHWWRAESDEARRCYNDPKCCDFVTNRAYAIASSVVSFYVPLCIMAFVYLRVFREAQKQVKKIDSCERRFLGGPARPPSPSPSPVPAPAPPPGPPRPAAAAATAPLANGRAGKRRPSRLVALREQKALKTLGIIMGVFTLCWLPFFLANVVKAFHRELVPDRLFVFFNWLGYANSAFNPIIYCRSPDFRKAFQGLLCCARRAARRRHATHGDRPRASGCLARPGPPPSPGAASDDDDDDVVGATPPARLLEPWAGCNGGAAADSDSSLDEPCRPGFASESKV

[31] = biological target: Dual serine/threonine and tyrosine protein kinase (Homo sapiens) (UniProt Q6XUX3); assay: RIPK5 DiscoveRx kinase panel; settings: Compound concentration 1.0 uM
[32] = biological target: Aurora kinase B (Homo sapiens) (UniProt Q96GD4); assay: AURKB DiscoveRx kinase panel; settings: Compound concentration 1.0 uM
[33] = biological target: Ephrin type-B receptor 6 (Homo sapiens) (UniProt O15197); assay: EPHB6 DiscoveRx kinase panel; settings: Compound concentration 1.0 uM
[34] = biological target: Calcium/calmodulin-dependent protein kinase type 1B (Homo sapiens) (UniProt Q6P2M8); assay: CAMK1B DiscoveRx kinase panel; settings: Compound concentration 1.0 uM
[35] = biological target: Myosin-IIIb (Homo sapiens) (UniProt Q8WXR4); assay: MYO3B DiscoveRx kinase panel; settings: Compound concentration 1.0 uM
[36] = biological target: Hepatocyte growth factor receptor (Homo sapiens) (UniProt P08581); assay: MET DiscoveRx kinase panel; settings: Compound concentration 1.0 uM
[37] = biological target: Histamine H4 receptor (Homo sapiens) (UniProt Q9H3N8); settings: Compound concentration 10.0 uM
[38] = biological target: Serine/threonine-protein kinase Chk2 (Homo sapiens) (UniProt O96017); assay: CHEK2 DiscoveRx kinase panel; settings: Compound concentration 1.0 uM
[39] = biological target: Ephrin type-A receptor 5 (Homo sapiens) (UniProt P54756); assay: EPHA5 DiscoveRx kinase panel; settings: Compound concentration 1.0 uM
[40] = biological target: Serine/threonine-protein kinase MARK2 (Homo sapiens) (UniProt Q7KZI7); assay: MARK2 DiscoveRx kinase panel; settings: Compound concentration 1.0 uM
[41] = biological target: Proto-oncogene tyrosine-protein kinase receptor Ret (Homo sapiens) (UniProt P07949); assay: RET DiscoveRx kinase panel; settings: Compound concentration 1.0 uM
[42] = biological target: Aurora kinase C (Homo sapiens) (UniProt Q9UQB9); assay: AURKC DiscoveRx kinase panel; settings: Compound concentration 1.0 uM
[43] = biological target: Ribosomal protein S6 kinase alpha-4 (Homo sapiens) (UniProt O75676); assay: RPS6KA4(Kin.Dom.1-N-terminal) DiscoveRx kinase panel; settings: Compound concentration 1.0 uM
[44] = biological target: Tyrosine-protein kinase JAK2 (Homo sapiens) (UniProt O60674); assay: JAK2(JH1domain-catalytic) DiscoveRx kinase panel; settings: Compound concentration 1.0 uM
Chain of Tyrosine-protein kinase JAK2 (Homo sapiens) (O60674 whole entry): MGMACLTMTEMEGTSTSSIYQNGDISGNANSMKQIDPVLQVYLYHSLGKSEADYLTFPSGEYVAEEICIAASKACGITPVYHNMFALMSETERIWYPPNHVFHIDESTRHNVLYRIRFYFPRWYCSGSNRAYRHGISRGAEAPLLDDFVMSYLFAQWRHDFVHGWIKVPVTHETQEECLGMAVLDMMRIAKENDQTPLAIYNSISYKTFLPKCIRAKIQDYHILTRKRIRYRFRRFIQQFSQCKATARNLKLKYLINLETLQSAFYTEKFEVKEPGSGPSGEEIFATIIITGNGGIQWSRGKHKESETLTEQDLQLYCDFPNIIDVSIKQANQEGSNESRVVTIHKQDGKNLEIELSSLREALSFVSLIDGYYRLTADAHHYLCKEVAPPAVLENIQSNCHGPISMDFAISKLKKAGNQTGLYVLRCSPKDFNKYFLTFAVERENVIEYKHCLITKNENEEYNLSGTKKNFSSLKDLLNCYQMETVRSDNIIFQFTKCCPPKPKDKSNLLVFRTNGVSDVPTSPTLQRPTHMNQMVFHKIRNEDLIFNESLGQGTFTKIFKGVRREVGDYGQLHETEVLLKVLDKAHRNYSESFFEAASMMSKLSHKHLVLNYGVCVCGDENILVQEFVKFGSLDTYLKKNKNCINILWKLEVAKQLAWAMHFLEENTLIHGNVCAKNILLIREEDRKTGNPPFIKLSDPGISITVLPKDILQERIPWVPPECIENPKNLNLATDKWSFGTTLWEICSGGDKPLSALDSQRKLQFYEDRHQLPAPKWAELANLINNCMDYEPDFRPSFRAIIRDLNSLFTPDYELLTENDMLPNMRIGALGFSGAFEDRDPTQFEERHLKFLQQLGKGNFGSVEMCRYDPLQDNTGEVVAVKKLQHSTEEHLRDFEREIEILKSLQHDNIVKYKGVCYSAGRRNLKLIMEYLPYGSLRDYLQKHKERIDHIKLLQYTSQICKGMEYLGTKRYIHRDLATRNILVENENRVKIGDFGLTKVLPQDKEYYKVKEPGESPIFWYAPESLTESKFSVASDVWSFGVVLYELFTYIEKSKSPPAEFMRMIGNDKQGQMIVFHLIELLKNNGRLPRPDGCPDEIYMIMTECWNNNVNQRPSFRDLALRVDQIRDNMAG

[45] = biological target: Serine/threonine-protein kinase PAK 3 (Homo sapiens) (UniProt O75914); assay: PAK3 DiscoveRx kinase panel; settings: Compound concentration 1.0 uM
[46] = biological target: Serine/threonine-protein kinase PLK2 (Homo sapiens) (UniProt Q9NYY3); assay: PLK2 DiscoveRx kinase panel; settings: Compound concentration 1.0 uM
[47] = biological target: Ephrin type-B receptor 2 (Homo sapiens) (UniProt P29323); assay: EPHB2 DiscoveRx kinase panel; settings: Compound concentration 1.0 uM
Chain of Ephrin type-B receptor 2 (Homo sapiens) (P29323 whole entry): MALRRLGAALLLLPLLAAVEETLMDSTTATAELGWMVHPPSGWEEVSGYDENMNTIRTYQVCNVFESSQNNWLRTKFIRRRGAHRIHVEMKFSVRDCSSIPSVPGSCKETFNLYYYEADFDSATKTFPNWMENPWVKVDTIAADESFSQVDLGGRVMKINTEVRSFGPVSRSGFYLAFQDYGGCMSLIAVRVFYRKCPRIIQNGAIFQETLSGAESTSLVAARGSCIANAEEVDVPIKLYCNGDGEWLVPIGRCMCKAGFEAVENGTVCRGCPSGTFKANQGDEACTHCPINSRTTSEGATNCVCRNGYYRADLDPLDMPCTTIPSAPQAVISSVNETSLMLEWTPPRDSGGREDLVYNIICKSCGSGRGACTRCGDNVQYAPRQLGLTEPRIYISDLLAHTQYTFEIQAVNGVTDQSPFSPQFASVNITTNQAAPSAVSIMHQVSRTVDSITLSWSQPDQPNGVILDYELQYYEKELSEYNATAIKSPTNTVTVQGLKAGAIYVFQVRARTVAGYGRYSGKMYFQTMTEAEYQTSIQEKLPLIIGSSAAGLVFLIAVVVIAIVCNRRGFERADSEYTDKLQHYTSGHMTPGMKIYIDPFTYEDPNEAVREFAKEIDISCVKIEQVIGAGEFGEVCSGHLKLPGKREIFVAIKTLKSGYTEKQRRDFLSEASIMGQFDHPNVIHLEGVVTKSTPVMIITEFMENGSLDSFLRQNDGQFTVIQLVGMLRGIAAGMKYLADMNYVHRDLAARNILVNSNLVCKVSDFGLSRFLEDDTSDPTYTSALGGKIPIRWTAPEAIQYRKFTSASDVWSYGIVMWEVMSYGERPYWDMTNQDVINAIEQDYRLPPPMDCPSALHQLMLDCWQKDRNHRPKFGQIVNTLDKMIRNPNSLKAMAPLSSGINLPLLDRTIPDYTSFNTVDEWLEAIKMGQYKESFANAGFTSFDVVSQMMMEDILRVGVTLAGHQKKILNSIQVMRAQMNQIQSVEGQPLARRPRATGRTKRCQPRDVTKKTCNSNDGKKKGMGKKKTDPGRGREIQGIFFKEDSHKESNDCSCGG

[48] = biological target: Receptor tyrosine-protein kinase erbB-4 (Homo sapiens) (UniProt Q15303); assay: ERBB4 DiscoveRx kinase panel; settings: Compound concentration 1.0 uM
[49] = biological target: Serine/threonine-protein kinase Nek1 (Homo sapiens) (UniProt Q96PY6); assay: NEK1 DiscoveRx kinase panel; settings: Compound concentration 1.0 uM

Chain of Gastrin/cholecystokinin type B receptor (Homo sapiens) (P32239 whole entry): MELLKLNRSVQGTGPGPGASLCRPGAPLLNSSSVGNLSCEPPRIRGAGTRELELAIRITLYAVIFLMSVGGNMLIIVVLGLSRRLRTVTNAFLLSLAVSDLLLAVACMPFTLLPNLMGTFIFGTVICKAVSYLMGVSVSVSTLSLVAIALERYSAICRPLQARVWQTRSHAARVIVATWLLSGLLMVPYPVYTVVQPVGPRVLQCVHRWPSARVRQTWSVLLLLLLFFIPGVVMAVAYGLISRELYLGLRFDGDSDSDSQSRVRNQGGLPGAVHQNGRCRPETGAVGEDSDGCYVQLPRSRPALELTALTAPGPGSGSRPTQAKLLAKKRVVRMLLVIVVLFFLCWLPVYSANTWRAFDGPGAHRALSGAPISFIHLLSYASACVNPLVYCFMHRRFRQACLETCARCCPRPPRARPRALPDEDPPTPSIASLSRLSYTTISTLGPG

Which inhibition [1] does the source give for `COc1cnccc1Nc1nc(-c2nn(Cc3c(F)cc(OCCO)cc3F)c3ccccc23)ncc1OC` here?
Its inhibition is -2%.

What about the inhibition [2] of the same molecule?
Its inhibition is 1%.

And the residual activity [3]?
Its residual activity is 85%.

And the “Cell Proliferation IC50” value [4]?
The value was 1100 nM.

What about the residual activity [5] of the same molecule?
Its residual activity is 93%.

And the residual activity [6]?
The residual activity was 100%.

What about the inhibition at 60 min, 10 µM [7] of the same molecule?
Its inhibition at 60 min, 10 µM is 7% (not active).

And the residual activity [8]?
The residual activity was 60%.

What about the residual activity [9] of the same molecule?
The residual activity was 100%.

And the residual activity [10]?
The residual activity was 72%.

And the residual activity [11]?
Its residual activity is 81%.

What about the residual activity [12] of the same molecule?
The residual activity was 100%.

And the inhibition [13]?
The inhibition was 21.3%.

And the residual activity [14]?
Its residual activity is 95%.

What about the residual activity [15] of the same molecule?
Its residual activity is 98%.

And the residual activity [16]?
The residual activity was 100%.

What about the residual activity [17] of the same molecule?
The residual activity was 100%.

And the inhibition [18]?
Its inhibition is -6%.

What about the residual activity [19] of the same molecule?
Its residual activity is 100%.

And the residual activity [20]?
Its residual activity is 72%.

What about the inhibition [21] of the same molecule?
Its inhibition is 0%.

And the residual activity [22]?
The residual activity was 87%.

What about the residual activity [23] of the same molecule?
Its residual activity is 89%.

And the residual activity [24]?
Its residual activity is 65%.

And the residual activity [25]?
The residual activity was 99%.

And the “Cell Proliferation IC50” value [26]?
The value was 1600 nM.

And the residual activity [27]?
The residual activity was 80%.

And the inhibition at 60 min, 10 µM [28]?
The inhibition at 60 min, 10 µM was -15% (not active).

What about the residual activity [29] of the same molecule?
Its residual activity is 97%.

And the inhibition [30]?
Its inhibition is -6.28%.

What about the residual activity [31] of the same molecule?
Its residual activity is 100%.

And the residual activity [32]?
Its residual activity is 100%.

What about the residual activity [33] of the same molecule?
Its residual activity is 100%.

And the residual activity [34]?
The residual activity was 95%.

What about the residual activity [35] of the same molecule?
The residual activity was 91%.

And the residual activity [36]?
The residual activity was 80%.

And the inhibition [37]?
Its inhibition is 39.3%.

And the residual activity [38]?
The residual activity was 100%.

And the residual activity [39]?
Its residual activity is 78%.

What about the residual activity [40] of the same molecule?
Its residual activity is 67%.

What about the residual activity [41] of the same molecule?
Its residual activity is 97%.

What about the residual activity [42] of the same molecule?
Its residual activity is 100%.

And the residual activity [43]?
The residual activity was 91%.

And the residual activity [44]?
Its residual activity is 100%.

What about the residual activity [45] of the same molecule?
Its residual activity is 81%.

And the residual activity [46]?
Its residual activity is 100%.

And the residual activity [47]?
The residual activity was 100%.

And the residual activity [48]?
Its residual activity is 100%.

What about the residual activity [49] of the same molecule?
Its residual activity is 78%.

Reference: ChEMBL document CHEMBL5058649, “Data for DCP probe BAY 1816032” (2022)
